Here are results for 8 compounds from US20220370416A1, “COMPOUNDS AND METHODS FOR TARGETED DEGRADATION OF KRAS” (Arvinas Operations, Inc., priority 2020, published 2022).

Molecules are shown by their SMILES.

Assay [1] concerns the target T1, HiBit-KRAS^G12C (Homo sapiens, UniProt P01116, G12C). Kind of assay: HiBit degradation assay in SW1573 HiBit-KRas^G12C cells. In kind it is cell-based. Further details: expressed in transfected cells; host or cells: SW1573 (clone E6), modified pcDNA3.1 vector, TK promoter. Conditions: 24 hours; for DC50: read-out: KRas^G12C-HIBit (SW1573; 0.1% DMSO) DC50*. The method in brief: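 HiBit-KRAS G12C degradation was measured after a 24 h compound exposure (titrated 10 μM–20 nM) in engineered SW1573 cells. Lytic HiBit luminescence, expressed relative to DMSO controls, yielded DC50 and Dmax from 4-parameter fits. Concentrations causing ≥50% loss in alamar blue viability were omitted as cytotoxic.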
On the technique in general: HiBiT is a short tag that completes a luciferase, so light tracks the accessible tagged protein.

For assay [2], the target named is T1, HiBit-KRAS^G12C. Put plainly: HiBit degradation assay in MiaPaCa-2 HiBit-KRas^G12C cells. In kind it is cell-based. Conditions: 24 hours; for Dmax: maximum degradation. The method in brief:
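DC50 and Dmax come from 4-parameter fits of DMSO-normalized HiBit luminescence after 24 hours' exposure at 37° C to 10 μM–20 nM compound in 0.1% or 0.5% DMSO. Cells: MiaPaCa-2 carrying one endogenously HiBit-tagged KRAS^G12C allele; concentrations causing ≥50% […] viability loss (alamar blue) excluded.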

[3] abbreviates: SW1573, SW1573 HiBit-KRas^G12C, 0.1% DMSO, read-out: KRas^G12C-HiBit (SW1573; 0.1% DMSO) Dmax**.
The mark [4] stands for this setting: SW1573, SW1573 HiBit-KRas^G12C, 0.5% DMSO, read-out: KRas^G12C-HiBiT (SW1573; 0.5% DMSO) Dmax**.
The mark [5] stands for this setting: SW1573 HiBit-KRas^G12C, 0.1% DMSO.
[6] abbreviates: MIA PaCa-2, MiaPaCa-2 HiBit-KRas^G12C cells, 0.1% DMSO, read-out: KRas^G12C-HiBiT (MiaPaCa; 0.1% DMSO) DMax.
[7] abbreviates: SW1573, read-out: KRas^G12C-HiBiT (SW1573; 0.5% DMSO) Dmax**, SW1573 HiBit-KRas^G12C, 0.5% DMSO.
[8] abbreviates: SW1573, read-out: KRas^G12C-HiBit (SW1573; 0.1% DMSO) Dmax**, SW1573 HiBit-KRas^G12C, 0.1% DMSO.
Where [9] appears, read: MIA PaCa-2, read-out: KRas^G12C-HiBiT (MiaPaCa; 0.1% DMSO) DMax, MiaPaCa-2 HiBit-KRas^G12C cells, 0.1% DMSO.
Setting [10] is: MIA PaCa-2, read-out: KRas^G12C-HiBiT (MiaPaCa; 0.5% DMSO) DMax, MiaPaCa-2 HiBit-KRas^G12C cells, 0.5% DMSO.
[11] abbreviates: read-out: KRas^G12C-HiBiT (MiaPaCa; 0.1% DMSO) IC50, MiaPaCa-2 HiBit-KRas^G12C cells, 0.1% DMSO.

T1 sequence (P01116 1-186 isoform P01116-2 G12C limits assumed): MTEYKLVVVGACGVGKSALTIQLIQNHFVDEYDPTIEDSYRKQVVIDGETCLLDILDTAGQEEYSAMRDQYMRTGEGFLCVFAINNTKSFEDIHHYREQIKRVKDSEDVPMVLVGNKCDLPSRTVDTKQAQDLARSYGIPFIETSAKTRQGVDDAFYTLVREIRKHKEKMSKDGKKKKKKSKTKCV

Take `C=CC(=O)N1CCN(c2nc(O[C@H](C)CN3CCC(OCCOCC(=O)N[C@H](C(=O)N4C[C@H](O)C[C@H]4C(=O)N[C@@H](C)c4ccc(-c5scnc5C)cc4)C(C)(C)C)CC3)nc3c(F)c(-c4cc(O)cc5ccccc45)c(Cl)cc23)[C@@H](C)C1` [Compound 39, (2S,4R)-1-[(2S)-2-{2-[2-({1-[(2R)-2-{[6-chloro-8-fluoro-7-(3-hydroxynaphthalen-1-yl)-4-[(2S)-2-methyl-4-(prop-2-enoyl)piperazin-1-yl]quinazolin-2-yl]oxy}propyl]piperidin-4-yl}oxy)ethoxy]acetamido}-3,3-dimethylbutanoyl]-4-hydroxy-N-[(1S)-1-[4-(4-methyl-1,3-thiazol-5-yl)phenyl]ethyl]pyrrolidine-2-carboxamide]: the Dmax at HiBit-KRAS^G12C [1] (setting [3]) was 35 to 70%; on HiBit-KRAS^G12C [1] (setting [4]) it was 35 to 70%; on HiBit-KRAS^G12C [2] (setting [6]) it was less than 35%. Also, the DC50 is 100 to 1000 nM on HiBit-KRAS^G12C [1] (setting [5]) and greater than 1000 nM at HiBit-KRAS^G12C [2] (read-out: KRas^G12C-HiBiT (MiaPaCa; 0.5% DMSO) IC50, MiaPaCa-2 HiBit-KRas^G12C cells, 0.5% DMSO).

As to `C=CC(=O)N1CCN(c2nc(O[C@H](C)CN3CCN(C4CN(CC(=O)N[C@H](C(=O)N5C[C@H](O)C[C@H]5C(=O)N[C@@H](C)c5ccc(-c6scnc6C)cc5)C(C)(C)C)C4)CC3)nc3c(F)c(-c4cc(O)cc5ccccc45)c(Cl)cc23)CC1` [Compound 40, (2S,4R)-1-[(2S)-2-[2-(3-{4-[(2R)-2-{[6-chloro-8-fluoro-7-(3-hydroxynaphthalen-1-yl)-4-[4-(prop-2-enoyl)piperazin-1-yl]quinazolin-2-yl]oxy}propyl]piperazin-1-yl}azetidin-1-yl)acetamido]-3,3-dimethylbutanoyl]-4-hydroxy-N-[(1S)-1-[4-(4-methyl-1,3-thiazol-5-yl)phenyl]ethyl]pyrrolidine-2-carboxamide], the Dmax is 35 to 70% at HiBit-KRAS^G12C [1] (setting [7]), 35 to 70% at HiBit-KRAS^G12C [1] (setting [8]), less than 35% at HiBit-KRAS^G12C [2] (setting [9]) and less than 35% at HiBit-KRAS^G12C [2] (setting [10]). Besides, the figures for the DC50 at HiBit-KRAS^G12C [1] (setting [5]) and on HiBit-KRAS^G12C [2] (setting [11]) were greater than 1000 nM and 100 to 1000 nM, respectively.

Consider `C=CC(=O)N1CCN(c2nc(O[C@H](C)CN3CC(OCC(=O)N[C@H](C(=O)N4C[C@H](O)C[C@H]4C(=O)N[C@@H](C)c4ccc(-c5scnc5C)cc4)C(C)(C)C)C3)nc3c(F)c(-c4cc(O)cc5ccccc45)c(Cl)cc23)CC1` [Compound 41, (2S,4R)-1-[(2S)-2-[2-({1-[(2R)-2-{[6-chloro-8-fluoro-7-(3-hydroxynaphthalen-1-yl)-4-[4-(prop-2-enoyl)piperazin-1-yl]quinazolin-2-yl]oxy}propyl]azetidin-3-yl}oxy)acetamido]-3,3-dimethylbutanoyl]-4-hydroxy-N-[(1S)-1-[4-(4-methyl-1,3-thiazol-5-yl)phenyl]ethyl]pyrrolidine-2-carboxamide], for which the results for the Dmax on HiBit-KRAS^G12C [1] (setting [3]) and on HiBit-KRAS^G12C [2] (setting [6]) were 35 to 70% and less than 35%, respectively. For the same compound, the DC50 at HiBit-KRAS^G12C [1] (setting [5]) is greater than 1000 nM; at HiBit-KRAS^G12C [2] (setting [11]) it was 100 to 1000 nM.

`C=CC(=O)N1CCN(c2nc(O[C@H](C)CN3CCC(OCC(=O)N[C@H](C(=O)N4C[C@H](O)C[C@H]4C(=O)N[C@@H](C)c4ccc(-c5scnc5C)cc4)C(C)(C)C)CC3)nc3c(F)c(-c4cc(O)cc5ccccc45)c(Cl)cc23)CC1` [Compound 43, (2S,4R)-1-[(2S)-2-[2-({1-[(2R)-2-{[6-chloro-8-fluoro-7-(3-hydroxynaphthalen-1-yl)-4-[4-(prop-2-enoyl)piperazin-1-yl]quinazolin-2-yl]oxy}propyl]piperidin-4-yl}oxy)acetamido]-3,3-dimethylbutanoyl]-4-hydroxy-N-[(1S)-1-[4-(4-methyl-1,3-thiazol-5-yl)phenyl]ethyl]pyrrolidine-2-carboxamide]: the Dmax on HiBit-KRAS^G12C [1] (setting [3]) is 35 to 70%; at HiBit-KRAS^G12C [1] (setting [4]), greater than 70%; on HiBit-KRAS^G12C [2] (setting [6]) it was 35 to 70%; on HiBit-KRAS^G12C [2] (MIA PaCa-2, MiaPaCa-2 HiBit-KRas^G12C cells, 0.5% DMSO, read-out: KRas^G12C-HiBiT (MiaPaCa; 0.5% DMSO) DMax) it was 35 to 70%. The DC50 on HiBit-KRAS^G12C [1] (setting [5]) was 100 to 1000 nM.

On to `C=CC(=O)N1CCN(c2nc(O[C@H](C)CN3CCC(OCCOCC(=O)N[C@H](C(=O)N4C[C@H](O)C[C@H]4C(=O)N[C@@H](C)c4ccc(-c5scnc5C)cc4)C(C)(C)C)CC3)nc3c(F)c(-c4cc(O)cc5ccccc45)c(Cl)cc23)C[C@H]1C` [Compound 45, (2S,4R)-1-[(2S)-2-{2-[2-({1-[(2R)-2-{[6-chloro-8-fluoro-7-(3-hydroxynaphthalen-1-yl)-4-[(3R)-3-methyl-4-(prop-2-enoyl)piperazin-1-yl]quinazolin-2-yl]oxy}propyl]piperidin-4-yl}oxy)ethoxy]acetamido}-3,3-dimethylbutanoyl]-4-hydroxy-N-[(1S)-1-[4-(4-methyl-1,3-thiazol-5-yl)phenyl]ethyl]pyrrolidine-2-carboxamide], for which the Dmax on HiBit-KRAS^G12C [1] (setting [3]) is less than 35%. In addition, the values for the DC50 on HiBit-KRAS^G12C [1] (setting [5]) and at HiBit-KRAS^G12C [2] (setting [11]) were 100 to 1000 nM and greater than 1000 nM, respectively.

In the case of `C=CC(=O)N1CCN(c2nc(O[C@H](C)CN3CC(OC4CCN(CC(=O)N[C@H](C(=O)N5C[C@H](O)C[C@H]5C(=O)N[C@@H](C)c5ccc(-c6scnc6C)cc5)C(C)(C)C)CC4)C3)nc3c(F)c(-c4cc(O)cc5ccccc45)c(Cl)cc23)CC1` [Compound 46, (2S,4R)-1-[(2S)-2-{2-[4-({1-[(2R)-2-{[6-chloro-8-fluoro-7-(3-hydroxynaphthalen-1-yl)-4-[4-(prop-2-enoyl)piperazin-1-yl]quinazolin-2-yl]oxy}propyl]azetidin-3-yl}oxy)piperidin-1-yl]acetamido}-3,3-dimethylbutanoyl]-4-hydroxy-N-[(1S)-1-[4-(4-methyl-1,3-thiazol-5-yl)phenyl]ethyl]pyrrolidine-2-carboxamide], the Dmax on HiBit-KRAS^G12C [1] (setting [7]) is 35 to 70%; on HiBit-KRAS^G12C [1] (setting [8]) it was 35 to 70%; on HiBit-KRAS^G12C [2] (setting [9]) it was less than 35%; on HiBit-KRAS^G12C [2] (setting [10]), 35 to 70%. Moreover, the DC50 at HiBit-KRAS^G12C [1] (setting [5]) fell in the range of 100 to 1000 nM.

`C=CC(=O)N1CCN(c2nc(O[C@H](C)CN3CCC(CCCOC4CN(CC(=O)N[C@H](C(=O)N5C[C@H](O)C[C@H]5C(=O)N[C@@H](C)c5ccc(-c6scnc6C)cc5)C(C)(C)C)C4)CC3)nc3c(F)c(-c4cc(O)cc5ccccc45)c(Cl)cc23)CC1` [Compound 48, (2S,4R)-1-[(2S)-2-{2-[3-(3-{1-[(2R)-2-{[6-chloro-8-fluoro-7-(3-hydroxynaphthalen-1-yl)-4-[4-(prop-2-enoyl)piperazin-1-yl]quinazolin-2-yl]oxy}propyl]piperidin-4-yl}propoxy)azetidin-1-yl]acetamido}-3,3-dimethylbutanoyl]-4-hydroxy-N-[(1S)-1-[4-(4-methyl-1,3-thiazol-5-yl)phenyl]ethyl]pyrrolidine-2-carboxamide]: the Dmax at HiBit-KRAS^G12C [1] (setting [8]) is less than 35%. Further, the DC50 was 100 to 1000 nM at HiBit-KRAS^G12C [1] (setting [5]) and greater than 1000 nM on HiBit-KRAS^G12C [2] (setting [11]).

For `C=CC(=O)N1CCN(c2nc(O[C@H](C)CN3CCN(CCCN4CCN(CC(=O)N[C@H](C(=O)N5C[C@H](O)C[C@H]5C(=O)N[C@@H](C)c5ccc(-c6scnc6C)cc5)C(C)(C)C)CC4)CC3)nc3c(F)c(-c4cc(O)cc5ccccc45)c(Cl)cc23)CC1` [Compound 49, (2S,4R)-1-[(2S)-2-{2-[4-(3-{4-[(2R)-2-{[6-chloro-8-fluoro-7-(3-hydroxynaphthalen-1-yl)-4-[4-(prop-2-enoyl)piperazin-1-yl]quinazolin-2-yl]oxy}propyl]piperazin-1-yl}propyl)piperazin-1-yl]acetamido}-3,3-dimethylbutanoyl]-4-hydroxy-N-[(1S)-1-[4-(4-methyl-1,3-thiazol-5-yl)phenyl]ethyl]pyrrolidine-2-carboxamide], the Dmax on HiBit-KRAS^G12C [1] (setting [8]) is less than 35%. For the same compound, the DC50 was 100 to 1000 nM at HiBit-KRAS^G12C [1] (setting [5]) and greater than 1000 nM on HiBit-KRAS^G12C [2] (setting [11]).
